Reference: patent US20070128217A1 (priority 2003, published 2007)

Legend:
[1] = test system: control sera (pooled serum of ten healthy LUMC hospital workers; commercial negative donor pooled serum from the Dutch bloodbank); assay type: binding, human; parameters: Binding of Control serum LUMC to linear peptides / Binding of Control serum Blood-bank to linear peptides / Binding of Control serum LUMC to looped peptides / Binding of Control Serum Blood-Bank to Looped peptides / Binding of Control serum LUMC to linear peptides of the protein M of SARS-CoV Urbani / Binding of Control serum Blood-bank to linear peptides of the protein M of SARS-CoV Urbani / Binding of Control serum LUMC to looped peptides of the protein M of SARS-CoV Urbani / Binding of Control Serum Blood-Bank to Looped peptides of the protein M of SARS-CoV Urbani: unit not given here
[2] = test system: rabbit serum obtained by immunizing a rabbit with the SARS-CoV strain Frankfurt 1; assay type: binding; parameters: Binding of a rabbit serum to linear peptides / Binding of a rabbit serum to looped peptides / Rabbit serum linear peptides / Rabbit serum looped peptides / Binding of a rabbit serum to linear peptides of protein N of SARS-CoV Urbani (Rabbit serum linear peptides) / Binding of a rabbit serum to looped/cyclic peptides of protein N of SARS-CoV Urbani (Rabbit serum looped peptides): unit not given here
[3] = test system: recombinant human anti-SARS-CoV antibody 03-018; assay type: binding; parameters: Binding of antibody 03-018 to linear peptides of the N protein of SARS-CoV Urbani / Binding of antibody 03-018 to looped/cyclic peptides of the N protein of SARS-CoV Urbani: unit not given here
[4] = test system: antibodies in sera from SARS patients (sera 1a, 1b, 2, 6, 37, 62, London, SARS-yellow, SARS-green); assay type: binding, human; parameters: Binding of serum 6 to linear peptides of protein X1 of SARS-CoV Urbani / Binding of serum 37 to linear peptides of protein X1 of SARS-CoV Urbani / Binding of serum 6 to looped/cyclic peptide (PEPSCAN-ELISA) / Binding of serum 37 to looped/cyclic peptide (PEPSCAN-ELISA) / Binding of serum 37 to looped/cyclic peptides of protein X1 of SARS-CoV Urbani / Binding of serum 6 to linear peptides of protein X2 / Binding of serum 37 to linear peptides of protein X2 / Binding of serum 37 to looped/cyclic peptides of protein X2 of SARS-CoV Urbani / Binding of serum 6 to linear peptides of protein M of SARS-CoV Urbani / Binding of serum 37 to linear peptides of protein M of SARS-CoV Urbani / Binding of serum 6 to looped/cyclic peptides of protein M of SARS-CoV Urbani / Binding of serum 37 to looped/cyclic peptides of protein M of SARS-CoV Urbani / Binding of serum 6 to linear peptides of protein X3 of SARS-CoV Urbani / Binding of serum 37 to linear peptides of protein X3 of SARS-CoV Urbani / Binding of serum 37 to looped/cyclic peptides of protein X3 of SARS-CoV Urbani / Binding of serum 6 to linear peptides of protein X4 of SARS-CoV Urbani / Binding of serum 37 to linear peptides of protein X4 of SARS-CoV Urbani / Binding of serum 37 to looped/cyclic peptides of protein X4 of SARS-CoV Urbani / Binding of serum 6 to linear peptides of protein X5 of SARS-CoV Urbani / Binding of serum 37 to linear peptides of protein X5 of SARS-CoV Urbani / Binding of serum 37 to looped/cyclic peptides of protein X5 of SARS-CoV Urbani / Binding of serum 6 to linear peptides of protein N of SARS-CoV Urbani / Binding of serum 37 to linear peptides of protein N of SARS-CoV Urbani / Binding of serum 6 to linear peptide (PEPSCAN-ELISA) / Binding of serum 1a to looped/cyclic peptides of protein N of SARS-CoV Urbani / Binding of serum 1b to looped/cyclic peptides of protein N of SARS-CoV Urbani / Binding of serum 2 to looped/cyclic peptides of protein N of SARS-CoV Urbani / Binding of serum 6 to looped/cyclic peptides of protein N of SARS-CoV Urbani / Binding of serum 37 to looped/cyclic peptides of protein N of SARS-CoV Urbani / Binding of serum 62 to looped/cyclic peptides of protein N of SARS-CoV Urbani / Binding of serum London to looped/cyclic peptides of protein N of SARS-CoV Urbani / Binding of serum SARS-green to looped/cyclic peptides of protein N of SARS-CoV Urbani: unit not given here

| Sequence | Binding of Control Serum Blood-Bank to Looped peptides [1] | Binding of Control serum Blood-bank to linear peptides [1] | Binding of Control serum LUMC to linear peptides [1] | Binding of Control serum LUMC to looped peptides [1] | Binding of a rabbit serum to linear peptides of protein N of SARS-CoV Urbani (Rabbit serum linear peptides) [2] | Binding of a rabbit serum to looped/cyclic peptides of protein N of SARS-CoV Urbani (Rabbit serum looped peptides) [2] | Binding of antibody 03-018 to linear peptides of the N protein of SARS-CoV Urbani [3] | Binding of antibody 03-018 to looped/cyclic peptides of the N protein of SARS-CoV Urbani [3] | Binding of serum 1a to linear peptides of protein N of SARS-CoV Urbani [4] | Binding of serum 1a to looped/cyclic peptides of protein N of SARS-CoV Urbani [4] | Binding of serum 1b to linear peptides of protein N of SARS-CoV Urbani [4] | Binding of serum 1b to looped/cyclic peptides of protein N of SARS-CoV Urbani [4] | Binding of serum 2 to linear peptides of protein N of SARS-CoV Urbani [4] | Binding of serum 2 to looped/cyclic peptides of protein N of SARS-CoV Urbani [4] | Binding of serum 6 to linear peptides of protein N of SARS-CoV Urbani [4] | Binding of serum 6 to looped/cyclic peptides of protein N of SARS-CoV Urbani [4] | Binding of serum 37 to linear peptides of protein N of SARS-CoV Urbani [4] | Binding of serum 37 to looped/cyclic peptides of protein N of SARS-CoV Urbani [4] | Binding of serum 62 to linear peptides of protein N of SARS-CoV Urbani [4] | Binding of serum 62 to looped/cyclic peptides of protein N of SARS-CoV Urbani [4] | also measured |
| --- | --- | --- | --- | --- | --- | --- | --- | --- | --- | --- | --- | --- | --- | --- | --- | --- | --- | --- | --- | --- | --- |
| NTASWFTALTQHGKE | 0.5 | 0.5 | 0.6 | 0.4 | 0.1 | 0.1 | 0.1 | 0.2 | 0.2 | 0.2 | 0.1 | 0.2 | 0.1 | 0.2 | 0.1 | 0.1 | 0.7 | 0.4 | 0.5 | 0.3 | Binding of serum London to linear peptides of protein N of SARS-CoV Urbani [4]: 0.4; Binding of serum London to looped/cyclic peptides of protein N of SARS-CoV Urbani [4]: 0.3; Binding of serum SARS-green to linear peptides of protein N of SARS-CoV Urbani [4]: 0.4; Binding of serum SARS-green to looped/cyclic peptides of protein N of SARS-CoV Urbani [4]: 0.3; Binding of serum SARS-yellow to linear peptides of protein N of SARS-CoV Urbani [4]: 0.5; Binding of serum SARS-yellow to looped/cyclic peptides of protein N of SARS-CoV Urbani [4]: 0.3 |
| NTPKDHIGTRNPNNN | 0.5 | 0.8 | 0.7 | 0.6 | 0.1 | 0.1 | 0.1 | 0.2 | 0.3 | 0.4 | 0.1 | 0.3 | 0.3 | 0.4 | 0.2 | 0.3 | 0.8 | 0.6 | 0.7 | 0.3 | Binding of serum London to linear peptides of protein N of SARS-CoV Urbani [4]: 0.4; Binding of serum London to looped/cyclic peptides of protein N of SARS-CoV Urbani [4]: 0.4; Binding of serum SARS-green to linear peptides of protein N of SARS-CoV Urbani [4]: 0.4; Binding of serum SARS-green to looped/cyclic peptides of protein N of SARS-CoV Urbani [4]: 0.4; Binding of serum SARS-yellow to linear peptides of protein N of SARS-CoV Urbani [4]: 0.6; Binding of serum SARS-yellow to looped/cyclic peptides of protein N of SARS-CoV Urbani [4]: 0.4 |
